# Source: US12581252B2, “Substituted pyrrolo[3,4-b]pyridines as PI3K-α inhibitors” (Relay Therapeutics, Inc., priority 2020, dated 2026)
# Target: H1047R PIK3CA enzyme (Homo sapiens, UniProt P42336, H1047R)
# Assay: ADP-Glo Biochemical PIK3CA Kinase Assay
# H1047R PIK3CA enzyme, sequence (P42336 whole entry H1047R): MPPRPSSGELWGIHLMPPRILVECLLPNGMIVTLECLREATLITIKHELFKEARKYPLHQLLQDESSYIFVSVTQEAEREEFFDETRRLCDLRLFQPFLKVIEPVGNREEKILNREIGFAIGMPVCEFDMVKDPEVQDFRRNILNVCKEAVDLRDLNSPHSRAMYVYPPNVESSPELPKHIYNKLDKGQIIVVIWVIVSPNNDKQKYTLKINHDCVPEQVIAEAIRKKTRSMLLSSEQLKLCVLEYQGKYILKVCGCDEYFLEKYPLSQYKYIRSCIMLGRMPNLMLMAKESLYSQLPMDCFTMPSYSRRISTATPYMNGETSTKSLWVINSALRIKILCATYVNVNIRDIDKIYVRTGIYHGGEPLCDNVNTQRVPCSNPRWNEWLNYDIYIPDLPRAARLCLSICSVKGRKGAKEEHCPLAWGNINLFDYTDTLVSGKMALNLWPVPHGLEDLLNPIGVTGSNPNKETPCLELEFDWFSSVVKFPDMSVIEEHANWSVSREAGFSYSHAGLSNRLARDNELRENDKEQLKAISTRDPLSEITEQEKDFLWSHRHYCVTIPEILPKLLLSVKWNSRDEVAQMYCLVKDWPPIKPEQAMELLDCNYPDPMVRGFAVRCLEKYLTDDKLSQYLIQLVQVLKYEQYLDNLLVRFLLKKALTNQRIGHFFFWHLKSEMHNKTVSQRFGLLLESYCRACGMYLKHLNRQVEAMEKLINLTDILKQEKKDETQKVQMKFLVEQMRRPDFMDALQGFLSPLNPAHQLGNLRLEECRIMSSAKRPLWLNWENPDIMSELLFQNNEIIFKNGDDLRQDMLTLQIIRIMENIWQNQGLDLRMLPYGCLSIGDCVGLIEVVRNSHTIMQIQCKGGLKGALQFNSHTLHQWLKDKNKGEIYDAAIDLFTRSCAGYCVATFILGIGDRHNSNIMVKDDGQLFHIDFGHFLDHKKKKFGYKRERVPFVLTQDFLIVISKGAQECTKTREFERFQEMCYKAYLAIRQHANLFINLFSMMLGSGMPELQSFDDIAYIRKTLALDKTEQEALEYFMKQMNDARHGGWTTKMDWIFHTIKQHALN
# H1047R PIK3CA enzyme, sequence (P27986 whole entry partner): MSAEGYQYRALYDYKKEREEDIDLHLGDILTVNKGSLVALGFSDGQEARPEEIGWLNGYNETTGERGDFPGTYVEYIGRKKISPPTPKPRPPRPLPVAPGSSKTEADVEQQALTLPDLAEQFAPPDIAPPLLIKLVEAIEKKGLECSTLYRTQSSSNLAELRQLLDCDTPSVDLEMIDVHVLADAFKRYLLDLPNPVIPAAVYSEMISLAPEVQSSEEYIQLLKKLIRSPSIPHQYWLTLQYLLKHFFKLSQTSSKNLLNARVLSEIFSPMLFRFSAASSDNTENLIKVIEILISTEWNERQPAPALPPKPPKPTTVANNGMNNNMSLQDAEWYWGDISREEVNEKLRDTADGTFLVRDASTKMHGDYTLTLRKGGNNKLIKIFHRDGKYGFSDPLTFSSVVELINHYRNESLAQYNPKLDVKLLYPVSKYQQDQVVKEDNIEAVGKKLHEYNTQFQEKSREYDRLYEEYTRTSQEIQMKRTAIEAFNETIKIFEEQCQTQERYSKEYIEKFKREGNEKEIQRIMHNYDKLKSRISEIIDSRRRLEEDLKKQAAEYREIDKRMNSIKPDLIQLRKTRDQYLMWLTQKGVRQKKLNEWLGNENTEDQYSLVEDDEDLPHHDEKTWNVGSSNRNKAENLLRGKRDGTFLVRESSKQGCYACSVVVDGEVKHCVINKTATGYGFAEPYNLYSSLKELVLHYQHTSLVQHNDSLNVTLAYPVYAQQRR
row,SMILES,IC50
1,O=C(Nc1cnc(NC2COC2)c2c1C(c1cc(F)ccc1Cl)NC2=O)c1cc(F)cc(C(F)(F)F)c1 (centres unmarked) [Compound I-440],1 to 10 µM
2,"O=C(Nc1cccc2c1[C@@H](NC1CCCC1)NC2=O)c1cc(F)cc(C(F)(F)F)c1 (single isomer, unassigned) [Compound I-2249]",10 to 100 µM
3,"CC(C)[C@@]1(O)CN(C(=O)Nc2cccc3c2[C@H](c2cc(F)ccc2Cl)NC3=O)c2ccc(F)cc21 (single isomer, unassigned) [Compound I-2452]",1 to 10 µM
4,"O=C1N[C@@H](c2cc(F)ccc2Cl)c2c(NC(=O)[C@@H]3CCC[C@H](OC(F)(F)F)C3)cccc21 (single isomer, unassigned) [Compound I-2214]",10 to 100 µM
5,O=C(Nc1cccc2c1C(CC1CCCC1)NC2=O)c1cc(F)cc(C(F)(F)F)c1 (centres unmarked) [Compound I-2109],1 to 10 µM
6,COc1ccc(F)cc1C(=O)Nc1cc(Br)cc2c1C(c1cc(F)ccc1Cl)NC2=O (centres unmarked) [Compound I-796],1 to 10 µM
7,O=C(Nc1cccc2c1C(c1cc(O)ccc1Cl)NC2=O)c1cc(O)cc(C(F)(F)F)c1 (centres unmarked) [Compound I-415],10 to 100 µM
8,O=C1NC(c2cc(F)ccc2Cl)c2c(NC(=O)C3CCCCC3)cccc21 (centres unmarked) [Compound I-1680],1 to 10 µM
9,O=C(/C=C/c1ccccc1)Nc1cccc2c1C(c1cc(F)ccc1Cl)NC2=O (centres unmarked) [Compound I-2372],10 to 100 µM
10,"O=C1N[C@H](c2cc(F)ccc2Cl)c2c(NC(=O)[C@H]3CCC[C@H](OC(F)(F)F)C3)cccc21 (single isomer, unassigned) [Compound I-2211]",10 to 100 µM
11,O=C1N[C@@H](c2cc(F)ccc2Cl)c2c(N[C@@H]3CCOc4ccccc43)cc(-c3cnn(C(F)F)c3)nc21 [Compound I-2081],1 to 10 µM
12,"O=C1N[C@@H](c2cc(F)ccc2Cl)c2c(NC(=O)N3C[C@@H](O)c4cc(F)ccc43)cc(-c3ccc(=O)n(C(F)F)c3)cc21 (single isomer, unassigned) [Compound I-2451]",1 to 10 µM
13,O=C(Nc1cc(-c2ccc(=O)n(C3CC3)c2)cc2c1[C@@H](c1cc(F)ccc1Cl)NC2=O)c1cc(F)cc(C(F)(F)F)c1 [Compound I-744],1 to 10 µM
14,Nc1cc(NC(=O)c2cc(F)cc(C(F)(F)F)c2)c2c(c1)C(=O)NC2c1cccc(F)c1 (centres unmarked) [Compound I-2320],0.5 to 1 µM
15,"O=C1N[C@@H](c2cc(F)ccc2Cl)c2c(NC(=O)N3C[C@@](O)(C(F)(F)F)c4cc(F)ccc43)cc(F)cc21 (single isomer, unassigned) [Compound I-2628]",1 to 10 µM
16,O=C(Nc1cc(CS(=O)(=O)c2ccccc2)cc2c1[C@@H](c1cc(F)ccc1Cl)NC2=O)c1cc(F)cc(C(F)(F)F)c1 [Compound I-1593],1 to 10 µM
17,Cc1ccccc1C1NCCc2cccc(NC(=O)c3cc(F)cc(C(F)(F)F)c3)c21 (centres unmarked) [Compound I-1962],10 to 100 µM
18,COc1cc(C(=O)Nc2cc(Br)cc3c2C(c2cc(F)ccc2Cl)NC3=O)ccc1F (centres unmarked) [Compound I-559],1 to 10 µM
19,CNC(=O)c1cc(NC(=O)c2cc(F)cc(C(F)(F)F)c2)c2c(c1)c(=O)[nH]n2-c1cc(F)ccc1Cl [Compound I-808],1 to 10 µM
20,"O=C1NC(c2cc(F)ccc2Cl)c2c(NC(=O)[C@H](O)c3cc(F)cc(F)c3)cc(Br)cc21 (single isomer, unassigned) [Compound I-804]",10 to 100 µM
21,N#Cc1ccc(C(F)(F)F)c(NC(=O)Nc2cc(Br)cc3c2C(c2cc(F)ccc2Cl)NC3=O)c1 (centres unmarked) [Compound I-1051],1 to 10 µM
22,"C[C@@H]([C@H]1C[C@H](O)CN1C(=O)Nc1cccc2c1[C@H](c1cc(F)ccc1Cl)NC2=O)C(F)(F)F (single isomer, unassigned) [Compound I-2378]",10 to 100 µM
23,"Cc1ccccc1[C@H]1NC(=O)c2nccc(NC(=O)N3C[C@@H](C)c4ccccc43)c21 (single isomer, unassigned) [Compound I-301]",0.5 to 1 µM
24,Cc1ccccc1C1NC(=O)c2cccc(NC(=O)c3cccc(C(F)(F)F)c3)c21 (centres unmarked) [Compound I-435],1 to 10 µM
25,"O=C1N[C@H](c2cc(F)ccc2Cl)c2c(NC(=O)N3C[C@@H](O)c4cc(F)ccc43)cc(-c3cnn(C(F)F)c3)cc21 (single isomer, unassigned) [Compound I-2476]",10 to 100 µM
26,COc1cc(C(=O)Nc2cccc3c2C(c2ccccc2C)NC3=O)cc(F)c1F (centres unmarked) [Compound I-317],0.5 to 1 µM
27,O=C(Nc1cccc2c1C(C1CCCCC1O)NC2=O)c1cc(F)cc(C(F)(F)F)c1 (centres unmarked) [Compound I-1820],10 to 100 µM
28,"Nc1cc(NC(=O)N2C[C@H](O)c3cc(F)ccc32)c2c(c1)C(=O)N[C@H]2c1cc(F)ccc1Cl (single isomer, unassigned) [Compound I-2413]",10 to 100 µM
29,Cc1ccccc1C1NC(=O)c2nccc(NC(=O)N3CCc4ccc(F)cc43)c21 (centres unmarked) [Compound I-177],0.5 to 1 µM

# Other lines, results leading:
row,IC50,SMILES
1,≤ 0.1 µM,O=C(Nc1cc(C2(O)COC2)cc2c1C(c1cc(F)ccc1Cl)NC2=O)c1cc(F)cc(C(F)(F)F)c1 (centres unmarked) [Compound I-1281]
2,0.5 to 1 µM,N#Cc1cc2nccn2cc1-c1cc(NC(=O)c2cc(F)cc(C(F)(F)F)c2)c2c(c1)C(=O)N[C@@H]2c1cc(F)ccc1Cl [Compound I-1585]
3,≤ 0.1 µM,CC(C)(O)c1cnc2ccc(-c3cc(NC(=O)c4cc(F)cc(C(F)(F)F)c4)c4c(c3)C(=O)N[C@H]4c3cc(F)ccc3Cl)cc2c1 [Compound I-1604]
4,≤ 0.1 µM,N#CC1CC(Oc2cc(NC(=O)c3cc(F)cc(C(F)(F)F)c3)c3c(c2)C(=O)NC3c2cc(F)ccc2Cl)C1 (centres unmarked) [Compound I-1129]
5,≤ 0.1 µM,[2H]c1nc2ccc(-c3cc(NC(=O)c4cc(F)cc(C(F)(F)F)c4)c4c(c3)C(=O)N[C@H]4c3cc(F)ccc3Cl)cn2n1 (stereo in doubt) [Compound I-1785]
6,0.1 to 0.5 µM,Cc1ccccc1C1NC(=O)c2c(C(O)CO)ccc(NC(=O)c3csc4ccccc34)c21 (centres unmarked) [Compound I-120]
7,0.5 to 1 µM,O=C(Nc1cc(Br)cc2c1C(c1cc(F)ccc1Cl)NC2=O)c1cc(F)cc(Cl)c1O (centres unmarked) [Compound I-845]
8,≤ 0.1 µM,"C[C@@H](C#N)Oc1cc(NC(=O)c2cc(F)cc(C(F)(F)F)c2)c2c(c1)C(=O)N[C@H]2c1cc(F)ccc1Cl (single isomer, unassigned) [Compound I-2009]"
9,0.1 to 0.5 µM,CC(C)(O)C(O)c1cc(NC(=O)c2cc(F)cc(C(F)(F)F)c2)c2c(c1)C(=O)NC2c1cc(F)ccc1Cl (racemic) [Compound I-1307]
10,0.1 to 0.5 µM,Cc1ccccc1C1NC(=O)c2cccc(NC(=O)N3CCc4ccc(F)cc43)c21 (centres unmarked) [Compound I-96]
11,≤ 0.1 µM,O=C1N[C@@H](c2cc(F)ccc2Cl)c2c(NC(=O)c3csc4ccccc34)cc(Br)cc21 [Compound I-734]
12,≤ 0.1 µM,CN1CC[C@@H](Nc2cc(NC(=O)c3cc(F)cc(C(F)(F)F)c3)c3c(c2)C(=O)NC3c2cc(F)ccc2Cl)C1 (some centres unmarked) [Compound I-312]
13,≤ 0.1 µM,"[2H]C([2H])(c1cc(NC(=O)c2cc(F)cc(C(F)(F)F)c2)c2c(c1)C(=O)N[C@H]2c1cc(F)ccc1Cl)S(C)(=O)=O (single isomer, unassigned) [Compound I-1789]"
14,≤ 0.1 µM,Cn1nc(C(F)(F)F)cc1-c1cc(NC(=O)c2cc(F)cc(C(F)(F)F)c2)c2c(c1)C(=O)NC2c1cc(F)ccc1Cl (centres unmarked) [Compound I-1865]
15,≤ 0.1 µM,O=C(Nc1cc(-c2ccc3nc(Cl)nn3c2)cc2c1C(c1cc(F)ccc1Cl)NC2=O)c1cc(F)cc(C(F)(F)F)c1 (centres unmarked) [Compound I-1573]
16,0.5 to 1 µM,Cc1ccccc1-n1[nH]c(=O)c2cccc(NC(=O)c3cc(F)cc(C(F)(F)F)c3)c21 [Compound I-178]
17,0.1 to 0.5 µM,Cc1ccccc1C1NC(=O)c2cc(CN)cc(NC(=O)c3cc(F)cc(C(F)(F)F)c3)c21 (centres unmarked) [Compound I-260]

row,IC50,SMILES
1,0.1 to 0.5 µM,Cc1ccccc1C1NC(=O)c2c(-c3cnn(C)c3)ncc(NC(=O)c3cc(F)cc(C(F)(F)F)c3)c21 (centres unmarked) [Compound I-254]
2,≤ 0.1 µM,O=CNc1nc(-c2cc(NC(=O)c3cc(F)cc(C(F)(F)F)c3)c3c(c2)C(=O)NC3c2cc(F)ccc2Cl)ccc1O (centres unmarked) [Compound I-1552]
3,≤ 0.1 µM,"O=C1NC[C@H](c2cc(NC(=O)c3cc(F)cc(C(F)(F)F)c3)c3c(c2)C(=O)N[C@H]3c2cc(F)ccc2Cl)O1 (single isomer, unassigned) [Compound I-1559]"
4,0.1 to 0.5 µM,CNC(=O)c1ncc(-c2cc(NC(=O)c3cc(F)cc(C(F)(F)F)c3)c3c(c2)C(=O)NC3c2cc(F)ccc2Cl)cn1 (centres unmarked) [Compound I-1506]
5,0.1 to 0.5 µM,O=C(Nc1cccc2c1C(c1ccccc1Br)NC2=O)c1cc(F)cc(C(F)(F)F)c1 (centres unmarked) [Compound I-325]
6,≤ 0.1 µM,Nc1cc(NC(=O)c2cc(F)cc(C(F)(F)F)c2)c2c(c1)C(=O)NC2c1ccccc1Cl (centres unmarked) [Compound I-393]
7,0.1 to 0.5 µM,CS(C)(=O)=Nc1cc(NC(=O)c2cc(F)cc(C(F)(F)F)c2)c2c(c1)C(=O)NC2c1cc(F)ccc1Cl (centres unmarked) [Compound I-1254]
8,≤ 0.1 µM,N#Cc1cc2nccn2cc1-c1cc(NC(=O)c2cc(F)cc(C(F)(F)F)c2)c2c(c1)C(=O)N[C@H]2c1cc(F)ccc1Cl [Compound I-1586]
9,≤ 0.1 µM,O=C(Nc1cc(-c2cn3ncnc3cc2F)cc2c1C(c1cc(F)ccc1Cl)NC2=O)c1cc(F)cc(C(F)(F)F)c1 (centres unmarked) [Compound I-1652]
10,≤ 0.1 µM,Cc1ccc(F)cc1[C@@H]1NC(=O)c2cc(Br)cc(NC(=O)c3cc(F)cc(C(F)(F)F)c3)c21 [Compound I-758]
11,0.1 to 0.5 µM,CC(C)(O)COc1cc(NC(=O)c2cc(F)cc(C(F)(F)F)c2)c2c(n1)C(=O)NC2c1cc(F)ccc1Cl (centres unmarked) [Compound I-1421]
12,0.1 to 0.5 µM,CC1(C(=O)Nc2cc(Br)cc3c2C(c2cc(F)ccc2Cl)NC3=O)CCCC(C(F)(F)F)C1 (mixture of isomers) [Compound I-1358]
13,≤ 0.1 µM,O=C(Nc1cc(-c2ccn3nccc3c2)cc2c1C(c1cc(F)ccc1Cl)NC2=O)c1cc(F)cc(C(F)(F)F)c1 (centres unmarked) [Compound I-1669]
14,≤ 0.1 µM,CC(O)(CC#N)c1cc(NC(=O)c2cc(F)cc(C(F)(F)F)c2)c2c(c1)C(=O)NC2c1cc(F)ccc1Cl (centres unmarked) [Compound I-1211]
15,≤ 0.1 µM,Cc1ncccc1-c1cc(NC(=O)c2cc(F)cc(C(F)(F)F)c2)c2c(c1)C(=O)NC2c1cc(F)ccc1Cl (centres unmarked) [Compound I-1152]
16,≤ 0.1 µM,CS(=O)(=O)N1CC(Oc2cc(NC(=O)c3cc(F)cc(C(F)(F)F)c3)c3c(c2)C(=O)NC3c2cc(F)ccc2Cl)C1 (centres unmarked) [Compound I-1346]
